Laboratory results as given in patent US6780866B2, “Analgesic composition and method” (priority 2001, dated 2004).
“And” between values parts separate entries of the source, which are not always exact repeats. Equal values may be shown once.

Tests used:
[1] = test system: formalin-induced inflammatory pain; parameters: species or system Wistar male rats; conditions: rat, in vivo
[2] = test system: heat-induced tail-flick (nociceptive pain); parameters: species or system Kunming mice; conditions: mouse, in vivo
Description: 320 screened mice, half male and half female, were randomly divided into 16 groups. They were not given food, only water 12 hours prior to dosing.
The heat tail flick analgesia meter includes a heat source consisting of a 12 V, 50 watt, 8.75 mm projector lamp. The light beam from the heat source was focused and directed to a point on the tail of a mouse being tested, having a distance of 1-2 mm plus ⅓ of the tail length to the tail end.
The test drugs were given intramuscularly. […] The tail-flick latencies, which were assessed in response to a noxious heat stimulus, i.e., the response time from applying radiant heat on the dorsal surface of the tail to the occurrence of tail flick, were measured and recorded at 15, 30, 45, 60, 90, 120, 150, 180 min. after dosing. For each measurement, three readings were made consecutively one minute apart, and their average was recorded as the latency. The testing on one animal would be terminated when tail-flick was not observed within 20 seconds, and the latency would be recorded as 20 seconds. The pain inhibition rate was calculated according to the following formula for the purpose of assessing the analgesia potency: […]
The results were processed with SPSS, a statistical software provided by SPSS, Inc. of Chicago, Ill., USA. Half effective dose (ED50) and half inhibition dose (ID50) were calculated with the probit method.

[3] = test system: formalin-induced inflammatory pain; conditions: rat, in vivo; cited from earlier work
pain = conditions: in vivo; cited from earlier work

| Compound | Inhibition rate (%) ([1]; 3 mg/kg) | Pain reaction score ([1]; 3 mg/kg) | Inhibition rate (%) ([2]; 3 mg/kg) | Latency after dosing ([2]; 3 mg/kg) | inhibition [3] [%] | analgesic potency relative to morphine (pain) | ID50 of morphine [1] [mg/kg] | ED95 of morphine [2] | ID50 of morphine [2] [mg/kg] |
| --- | --- | --- | --- | --- | --- | --- | --- | --- | --- |
| N=C1NC(O)C2C3OC4(O)OC(C(O)C2(N1)C4O)C3(O)CO (stereo not drawn) [TTX, octahydro-12-(hydroxymethyl)-2-imino-5,9:7,10a-dimethano-10aH-[1,3]dioxocino[6,5-d]pyrimidine-4,7,10,11,12-pentol] | 32.9% and 11.6% | 169.1 ± 47.2 and 223.0 ± 58.3 | 5.44% and 12.06% | 5.88 ± 1.00 and 6.04 ± 0.76 | 71.7 | about 3,000 times | – | – | – |
| CN1CC[C@]23c4c5ccc(O)c4O[C@H]2[C@@H](O)C=C[C@H]3[C@H]1C5.Cl [Morphine, Morphine hydrochloride] | – | – | – | – | – | – | 2.30 | 0.77 | 0.33 |
